According to US20260200928A1, “THERAPEUTIC COMPOUNDS” (Sanofi, priority 2022, published 2026):

Target: T1, human IL-17A (Homo sapiens, UniProt Q16552)
T1 construct: purchased R&D Systems 7955-IL/CF
T1 sequence (Q16552 24-155): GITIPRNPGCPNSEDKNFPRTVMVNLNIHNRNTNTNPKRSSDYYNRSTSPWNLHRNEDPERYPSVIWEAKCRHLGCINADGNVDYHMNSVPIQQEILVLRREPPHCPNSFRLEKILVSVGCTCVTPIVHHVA
Experiment: IL-17A AlphaLISA competition assay (block of IL-17A binding to its receptor IL-17RA)
Details: mean IC50 (n≥2), block of IL-17A binding to IL-17RA
In short: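 Bead-based AlphaLISA competition in PBS with 0.05% Tween-20 and 0.1% BSA: compound first meets human IL-17A (7.5 nM stock) for 30 min, then IL-17RA/Fc (5 nM stock) for 90 min, all at room temperature, before acceptor/donor bead capture. IC50 fitted 4-parameter, DMSO and 4 μM reference inhibitor as controls; at least duplicate.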

Compound	IC50
CC(C)(C)OC(=O)N1CCn2c(ccc2C(=O)N[C@H](C(=O)Nc2cc(CN3C[C@@H](C(F)(F)F)NC3=O)ccn2)[C@H]2CC[C@H](C)CC2)C1 [Example 7, Tert-butyl 6-(((S)-1-((1r,4S)-4-methylcyclohexyl)-2-oxo-2-((4-(((S)-2-oxo-4-(trifluoromethyl)imidazolidin-1-yl)methyl)pyridin-2-yl)amino)ethyl)-carbamoyl)-3,4-dihydropyrrolo[1,2-a]pyrazine-2(1H)-carboxylate]	407 nM
COCC(NC(=O)CCC(F)(F)F)c1ccnc(NC(=O)[C@@H](NC(=O)c2nccn2C(C)C)C2CCC(F)(F)CC2)c1 (single isomer, unassigned) [Example 141]	646 nM
C[C@@H](OC(C)(C)C)[C@H](NC(=O)c1ccnn1C)C(=O)Nc1cc(CN2C[C@@H](C(F)(F)F)NC2=O)ccn1 [Example 103, N-((2S,3R)-3-(tert-butoxy)-1-oxo-1-((4-(((S)-2-oxo-4-(trifluoromethyl)-imidazolidin-1-yl)methyl)pyridin-2-yl)amino)butan-2-yl)-1-methyl-1H-pyrazole-5-carboxamide]	1740 nM
CC(C)(C)OC(=O)N[C@H](C(=O)Nc1cc(CN2C[C@@H](C(F)(F)F)NC2=O)ccn1)[C@H]1CC[C@H](C)CC1 [Example 1, Tert-butyl ((S)-1-((1r,4S)-4-methylcyclohexyl)-2-oxo-2-((4-(((S)-2-oxo-4-(trifluoro-methyl)imidazolidin-1-yl)methyl)pyridin-2-yl)amino)ethyl)carbamate]	148 nM
CCn1nccc1C(=O)N[C@H](C(=O)Nc1cc(C(COC)NC(=O)CCC(F)(F)F)ccn1)C1CCC(F)(F)CC1 (single isomer, unassigned) [Example 138]	164 nM
Cn1nccc1C(=O)NC(C(=O)Nc1cc(C(C)(C)N2C[C@@H](C(F)(F)F)NC2=O)ccn1)C1CCC(F)(F)CC1 (stereo in doubt) [Example 172, N—((S)-1-(4,4-difluorocyclohexyl)-2-oxo-2-((4-(2-((S)-2-oxo-4-(trifluoro-methyl)imidazolidin-1-yl)propan-2-yl)pyridin-2-yl)amino)ethyl)-1-methyl-1H-pyrazole-5-carboxamide]	1170 nM
C[C@H](OC(C)(C)C)[C@H](NC(=O)c1nonc1C1CC1)C(=O)Nc1cc(CN2C[C@@H](C(F)(F)F)NC2=O)ccn1 [Example 116, N-((2S,3S)-3-(tert-butoxy)-1-oxo-1-((4-(((S)-2-oxo-4-(trifluoromethyl)-imidazolidin-1-yl)methyl)pyridin-2-yl)amino)butan-2-yl)-4-cyclopropyl-1,2,5-oxadiazole-3-carboxamide]	15400 nM
N-((S)-1-(4,4-difluorocyclohexyl)-2-oxo-2-((4-(2-((S)-2-oxo-4-(trifluoromethyl)imidazolidin-1-yl)propan-2-yl)pyridin-2-yl)amino)ethyl)-1-isopropyl-1H-pyrazole-5-carboxamide [Example 175]	384 nM
COC[C@H](c1ccnc(NC(=O)[C@@H](NC(=O)c2ccnn2C(C)C)C2CCC(Cl)CC2)c1)N1C[C@@H](C(F)(F)F)NC1=O (stereo partly drawn) [Example 312, N-((1S)-1-(4-chlorocyclohexyl)-2-((4-((S)-2-methoxy-1-((S)-2-oxo-4-(trifluoromethyl)imidazolidin-1-yl)ethyl)pyridin-2-yl)amino)-2-oxoethyl)-1-isopropyl-1H-pyrazole-5-carboxamide]	121 nM
Cc1cc(COC(=O)N[C@H](C(=O)Nc2cc(CN3C[C@@H](C(F)(F)F)NC3=O)ccn2)C2CCC(F)(F)CC2)nn1C [Example 60, (1,5-Dimethyl-1H-pyrazol-3-yl)methyl ((S)-1-(4,4-difluorocyclohexyl)-2-oxo-2-((4-(((S)-2-oxo-4-(trifluoromethyl)imidazolidin-1-yl)methyl)pyridin-2-yl)amino)ethyl)carbamate]	3750 nM
Cn1nccc1C(=O)N[C@H](C(=O)Nc1cc(C(NC(=O)CCC(F)(F)F)C2CC2)ccn1)C(C1CC1)C1CC1 (single isomer, unassigned) [Example 38]	448 nM
Cn1ccnc1C(=O)N[C@H](C(=O)Nc1cc(C(NC(=O)CCC(F)(F)F)C2CC2)ccn1)C1CCC(F)(F)CC1 (stereo partly drawn) [Example 111, N-((1S)-2-((4-(cyclopropyl(4,4,4-trifluorobutanamido)methyl)pyridin-2-yl)amino)-1-(4,4-difluorocyclohexyl)-2-oxoethyl)-1-methyl-1H-imidazole-2-carboxamide]	6170 nM
O=C(N[C@H](C(=O)Nc1cc(CN2C[C@@H](C(F)(F)F)NC2=O)ccn1)C1CCC(F)(F)CC1)c1nonc1C1CC1 [Example 8, 4-cyclopropyl-N-((S)-1-(4,4-difluorocyclohexyl)-2-oxo-2-((4-(((S)-2-oxo-4-(trifluoromethyl)imidazolidin-1-yl)methyl)pyridin-2-yl)amino)ethyl)-1,2,5-oxadiazole-3-carboxamide]	141 nM

Now those with a lower IC50, led by results:

IC50	Compound
71 nM	CCn1nccc1C(=O)N[C@H](C(=O)Nc1cc([C@@H](COC)N2C[C@@H](C(F)(F)F)NC2=O)ccn1)C1CCC(Cl)CC1 (stereo partly drawn) [Example 310, N-((1S)-1-(4-chlorocyclohexyl)-2-((4-((S)-2-methoxy-1-((S)-2-oxo-4-(trifluoromethyl)imidazolidin-1-yl)ethyl)pyridin-2-yl)amino)-2-oxoethyl)-1-ethyl-1H-pyrazole-5-carboxamide]
70 nM	O=C(N[C@H](C(=O)Nc1cc(C[C@H]2C[C@@H](C(F)(F)F)NC2=O)ccn1)C1CCC(F)(F)CC1)c1nonc1C1CC1 [Example 222, 4-cyclopropyl-N-((S)-1-(4,4-difluorocyclohexyl)-2-oxo-2-((4-(((3S,5S)-2-oxo-5-(trifluoromethyl)pyrrolidin-3-yl)methyl)pyridin-2-yl)amino)ethyl)-1,2,5-oxadiazole-3-carboxamide]
69 nM	COCC(c1ccnc(NC(=O)[C@@H](NC(=O)c2nonc2C2CC2)C2CCC(F)(F)CC2)c1)[C@H]1C[C@@H](C(F)(F)F)NC1=O (single isomer, unassigned) [Example 186, 4-Cyclopropyl-N-((1S)-1-(4,4-difluorocyclohexyl)-2-((4-((R or S)-2-methoxy-1-((3R,5S)-2-oxo-5-(trifluoromethyl)pyrrolidin-3-yl)ethyl)pyridin-2-yl)amino)-2-oxoethyl)-1,2,5-oxadiazole-3-carboxamide]
47 nM	COC[C@H](c1ccnc(NC(=O)C(NC(=O)c2nonc2C)C2CCC(F)CC2)c1)N1C[C@@H](C(F)(F)F)NC1=O (single isomer, unassigned) [Example 287]
44 nM	COC[C@H](c1ccnc(NC(=O)[C@@H](NC(=O)c2ccnn2C)C2CCC(C(F)(F)F)CC2)c1)N1C[C@@H](C(F)(F)F)NC1=O (stereo partly drawn) [Example 302, N-((1S)-2-((4-((S)-2-methoxy-1-((S)-2-oxo-4-(trifluoromethyl)imidazolidin-1-yl)ethyl)pyridin-2-yl)amino)-2-oxo-1-(4-(trifluoromethyl)-cyclohexyl)ethyl)-1-methyl-1H-pyrazole-5-carboxamide]
42 nM	N-((S)-2-((4-((S)-1-(5,5-difluoro-2-oxotetrahydropyrimidin-1(2H)-yl)-2-methoxyethyl)pyridin-2-yl)amino)-1-(4,4-difluorocyclohexyl)-2-oxoethyl)-4-ethyl-1,2,5-oxadiazole-3-carboxamide [Example 183]
39 nM	C[C@H]1CC[C@H]([C@H](NC(=O)c2nonc2C2CC2)C(=O)Nc2cc(C(CO)N3C[C@@H](C(F)(F)F)NC3=O)ccn2)CC1 (single isomer, unassigned) [Example 234, 4-Cyclopropyl-N-((1S)-2-((4-((R or S)-2-hydroxy-1-((S)-2-oxo-4-(trifluoromethyl)imidazolidin-1-yl)ethyl)pyridin-2-yl)amino)-1-((1r,4S)-4-methylcyclohexyl)-2-oxoethyl)-1,2,5-oxadiazole-3-carboxamide]
38 nM	COC[C@H](c1ccnc(NC(=O)[C@@H](NC(=O)c2cnoc2C(C)C)[C@@H]2C[C@H]3C[C@H]3C2)c1)N1C[C@@H](C(F)(F)F)NC1=O [Example 319, N—((S)-1-((1R,3s,5S)-bicyclo[3.1.0]hexan-3-yl)-2-((4-((S)-2-methoxy-1-((S)-2-oxo-4-(trifluoromethyl)imidazolidin-1-yl)ethyl)pyridin-2-yl)amino)-2-oxoethyl)-5-isopropylisoxazole-4-carboxamide]
29 nM	CCn1nccc1C(=O)N[C@@H](COC(C)(C)C(F)(F)F)C(=O)Nc1cc([C@@H](COC)N2C[C@@H](C(F)(F)F)NC2=O)ccn1 [Example 270, 1-ethyl-N-((S)-1-((4-((S)-2-methoxy-1-((S)-2-oxo-4-(trifluoromethyl)imidazolidin-1-yl)ethyl)pyridin-2-yl)amino)-1-oxo-3-((1,1,1-trifluoro-2-methylpropan-2-yl)oxy)propan-2-yl)-1H-pyrazole-5-carboxamide]
19 nM	CCc1nocc1C(=O)N[C@H](C(=O)Nc1cc([C@@H](COC)N2C[C@@H](C(F)(F)F)NC2=O)ccn1)C1CCC(Cl)CC1 (stereo partly drawn) [Example 317, N-((1S)-1-(4-chlorocyclohexyl)-2-((4-((S)-2-methoxy-1-((S)-2-oxo-4-(trifluoromethyl)imidazolidin-1-yl)ethyl)pyridin-2-yl)amino)-2-oxoethyl)-3-ethylisoxazole-4-carboxamide]
18 nM	COC[C@H](c1ccnc(NC(=O)[C@@H](NC(=O)c2nonc2C2CC2)C2CCC(F)(F)CC2)c1)N1C[C@@H](C(F)(F)F)NC1=O [Example 200, 4-cyclopropyl-N-((S)-1-(4,4-difluorocyclohexyl)-2-((4-((S)-2-methoxy-1-((S)-2-oxo-4-(trifluoromethyl)imidazolidin-1-yl)ethyl)pyridin-2-yl)amino)-2-oxoethyl)-1,2,5-oxadiazole-3-carboxamide]
